Experimental data reported in patent US9663527B2, “Factor XIa inhibitors” (Merck Sharp & Dohme Corp., priority 2014, dated 2017).
pKi: −log10 of the molar value. Counter-ions that a name gives are not always drawn.

target: purified human Factor XIa (Homo sapiens (Human), UniProt P03951); assay: Factor XIa Assay; assay type: biochemical; conditions: purified human Factor XIa 40 pM, substrate Z-Gly-Pro-Arg-AFC 100 μM, pH 7.4; read-out: hFactor XIa Ki
Protocol: The effectiveness of a compound of the present invention as an inhibitor of Coagulation Factor XIa can be determined using a relevant purified serine protease, and an appropriate synthetic substrate. The rate of hydrolysis of the chromogenic or fluorogenic substrate by the relevant serine protease was measured both in the absence and presence of compounds of the present invention. Assays were conducted at room temperature or at 37° C. […] A decrease in the rate of fluorescence change in the presence of inhibitor is indicative of enzyme inhibition. Such methods are known to one skilled in the art. The results of this assay are expressed as the inhibitory constant, Ki.
Factor XIa determinations were made in 50 mM HEPES buffer at pH 7.4 containing 150 mM NaCl, 5 mM CaCl2, and 0.1% PEG 8000 (polyethylene glycol; JT Baker or Fisher Scientific). Determinations were made using purified human Factor XIa at a final concentration of 40 pM (Sekisui Diagnostics) and the synthetic substrate, Z-Gly-Pro-Arg-AFC, TFA salt (Sigma #C0980) at a concentration of 100 μM.
Activity assays were performed by diluting a stock solution of substrate at least tenfold to a final concentration ≦0.1 Km into a solution containing enzyme or enzyme equilibrated with inhibitor. Times required to achieve equilibration between enzyme and inhibitor were determined in control experiments. Initial velocities of product formation in the absence (Vo) or presence of inhibitor (Vi) were measured. Assuming competitive inhibition, and that unity is negligible compared Km/[S], [I]/e, and [I]/e (where [S], [I], and e respectively represent the total concentrations, of substrate, inhibitor and enzyme), the equilibrium constant (Ki) for dissociation of the inhibitor from the enzyme can be obtained from the dependence of Vo/Vi on [I] shown in the following equation. Vo/Vi=1+[I]/Ki

Chain of purified human Factor XIa (P03951 388-625): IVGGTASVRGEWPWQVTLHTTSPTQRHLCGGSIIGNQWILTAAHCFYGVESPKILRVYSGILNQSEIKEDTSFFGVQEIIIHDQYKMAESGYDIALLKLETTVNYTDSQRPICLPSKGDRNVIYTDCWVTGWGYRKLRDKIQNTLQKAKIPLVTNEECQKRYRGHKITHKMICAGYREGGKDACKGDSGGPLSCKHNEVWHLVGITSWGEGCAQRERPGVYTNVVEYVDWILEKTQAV
Chain of purified human Factor XIa (P03951 19-387 partner): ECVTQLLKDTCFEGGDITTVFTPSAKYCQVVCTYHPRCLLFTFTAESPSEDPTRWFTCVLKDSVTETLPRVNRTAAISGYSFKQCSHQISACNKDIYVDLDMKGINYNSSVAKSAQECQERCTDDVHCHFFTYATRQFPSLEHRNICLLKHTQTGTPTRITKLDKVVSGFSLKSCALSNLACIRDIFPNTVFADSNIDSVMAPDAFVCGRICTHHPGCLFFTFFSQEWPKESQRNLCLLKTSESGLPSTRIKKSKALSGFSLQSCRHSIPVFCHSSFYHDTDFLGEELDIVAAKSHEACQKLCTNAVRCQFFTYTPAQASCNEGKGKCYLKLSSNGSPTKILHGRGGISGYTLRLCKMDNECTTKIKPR

| Compound | pKi |
| --- | --- |
| COC(=O)Nc1ccc2c(c1)NC(=O)CCCC[C@H](N1CCc3cc(CN)ccc3C1=O)c1nc-2c[nH]1 [Example 1, Methyl [(7S)-7-[6-(aminomethyl)-1-oxo-3,4-dihydroisoquinolin-2(1H)-yl]-2-oxo-1,2,3,4,5,6,7,9-octahydro-11,8-(azeno)-1,9-benzodiazacyclotridecin-14-yl]carbamate] | 8.62 |
| COC(=O)Nc1ccc2c(c1)NC(=O)CCCC[C@H](N1CCCc3cc(CN)ccc3C1=O)c1nc-2c[nH]1 [Example 2, Methyl [(7S)-7-[7-(aminomethyl)-1-oxo-1,3,4,5-tetrahydro-2H-2-benzazepin-2-yl]-2-oxo-1,2,3,4,5,6,7,9-octahydro-11,8-(azeno)-1,9-benzodiazacyclotridecin-14-yl]carbamate trifluoroacetate] | 8.41 |
| COC(=O)Nc1ccc2c(c1)NC(=O)CCCC[C@H](N1Cc3cc(CN)ccc3C1=O)c1nc-2c[nH]1 [Example 3, Methyl [(7S)-7-[5-(aminomethyl)-1-oxo-1,3-dihydro-2H-isoindol-2-yl]-2-oxo-1,2,3,4,5,6,7,9-octahydro-11,8-(azeno)-1,9-benzodiazacyclotridecin-14-yl]carbamate] | 7.15 |
| NCc1ccc2c(c1)CCN([C@H]1CCCCC(=O)Nc3ccc(F)cc3-c3ccnc1c3)C2=O [Example 4, 9-(6-(aminomethyl)-1-oxo-3,4-dihydroisoquinolin-2(1H)-yl)-2^5-fluoro-3-aza-1(4,2)-pyridina-2(1,2)-benzenacyclononaphan-4-one] | 6.77 |
